The target of one assay is T1, P/CAF (H4 peptide) (Homo sapiens, UniProt Q92831).
T1 construct: purchased Upstate Biotechnology
The assay is described as follows: Radiometric enzyme activity assay, P/CAF (H4 peptide). The assay is classed as biochemical. The following applies: 5 μg/ml NR-818, 10 μM ATP. On the procedure:
(§1) GSK-3 were assayed for their ability to phosphorylate the appropriate peptide/protein substrate in the presence of 5 μg/ml NR-818 and 10 μM ATP. Using the direct radiometric approach, kinase activities were determined and expressed as % activity compared to the untreated control (Upstate Biotechnology, Lake Placid, N.Y.). Activities are given as the mean of duplicate determinations relative to control incubations in which the inhibitor was substituted with DMSO. In the following table 1 providing results for NR818, the following abbreviations are used: • CDK, cyclin-dependent kinase; • CK, casein kinase; • eEF-2K, eukaryotic elongation factor-2 kinase; • JNK, c-Jun N-terminal kinase; • MAPK, mitogen-activated protein kinase; • PKC, protein kinase C; and • PI 3-kinase, phosphatidylinositol 3-kinase.

Another assay concerns the target T2, CDK1/cyclinB (Homo sapiens, UniProt P06493).
T2 construct: purchased Upstate Biotechnology
The assay is described as follows: Radiometric kinase activity assay. The assay is classed as biochemical. The settings on record: 5 μg/ml NR-818, 10 μM ATP. As for the experimental part:
as §1

The target of a further assay is T3, CDK5/p25 (Homo sapiens, UniProt Q00535).
T3 construct: purchased Upstate Biotechnology
The assay is described as follows: Radiometric kinase activity assay. The assay is classed as biochemical. The following applies: 5 μg/ml NR-818, 10 μM ATP. On the procedure:
as §1

A further assay has as its target T4, CDK6/cyclinD3 (Homo sapiens, UniProt Q00534).
T4 construct: purchased Upstate Biotechnology
The assay is described as follows: Radiometric kinase activity assay. Format: biochemical. The settings on record: 5 μg/ml NR-818, 10 μM ATP. On the procedure: as §1

The next assay concerns the target T5, CDK7/cyclinH (Homo sapiens, UniProt P50613).
T5 construct: purchased Upstate Biotechnology
The assay is described as follows: Radiometric kinase activity assay. Format: biochemical. The following applies: 5 μg/ml NR-818, 10 μM ATP. As for the experimental part:
as §1

A further assay relates to CK1. The assay is described as follows: Radiometric kinase activity assay. The assay is classed as biochemical. The following applies: 5 μg/ml NR-818, 10 μM ATP. As for the experimental part:
as §1

The next assay addresses T6, CK2 (Homo sapiens, UniProt P68400).
T6 construct: purchased Upstate Biotechnology
The assay is described as follows: Radiometric kinase activity assay. Format: biochemical. The following applies: 5 μg/ml NR-818, 10 μM ATP. On the procedure: as §1

The next assay deals with T7, JNK2α2 (Homo sapiens, UniProt P45984).
T7 construct: purchased Upstate Biotechnology
T7 sequence (P45984 whole entry): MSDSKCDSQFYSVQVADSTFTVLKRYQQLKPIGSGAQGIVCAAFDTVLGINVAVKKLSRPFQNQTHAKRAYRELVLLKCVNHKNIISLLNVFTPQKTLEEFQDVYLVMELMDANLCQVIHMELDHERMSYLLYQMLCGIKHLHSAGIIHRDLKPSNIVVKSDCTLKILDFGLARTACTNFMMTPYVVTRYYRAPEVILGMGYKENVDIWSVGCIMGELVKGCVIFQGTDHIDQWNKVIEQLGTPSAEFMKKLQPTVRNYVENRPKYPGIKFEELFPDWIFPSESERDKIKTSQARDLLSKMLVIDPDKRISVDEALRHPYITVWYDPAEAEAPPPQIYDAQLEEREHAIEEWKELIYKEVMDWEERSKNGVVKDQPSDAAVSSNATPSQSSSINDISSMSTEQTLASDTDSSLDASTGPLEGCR
The assay is described as follows: Radiometric kinase activity assay. The settings on record: 5 μg/ml NR-818, 10 μM ATP. The assay is classed as biochemical. As for the experimental part:
as §1

The next assay concerns the target T8, MAPK1 (Homo sapiens, UniProt P27361).
T8 construct: purchased Upstate Biotechnology
The assay is described as follows: Radiometric kinase activity assay. Format: biochemical. The settings on record: 5 μg/ml NR-818, 10 μM ATP. On the procedure:
as §1

For the next assay, the target named is T9, MAPK2 (Homo sapiens, UniProt P28482).
T9 construct: purchased Upstate Biotechnology
T9 sequence (P28482 whole entry): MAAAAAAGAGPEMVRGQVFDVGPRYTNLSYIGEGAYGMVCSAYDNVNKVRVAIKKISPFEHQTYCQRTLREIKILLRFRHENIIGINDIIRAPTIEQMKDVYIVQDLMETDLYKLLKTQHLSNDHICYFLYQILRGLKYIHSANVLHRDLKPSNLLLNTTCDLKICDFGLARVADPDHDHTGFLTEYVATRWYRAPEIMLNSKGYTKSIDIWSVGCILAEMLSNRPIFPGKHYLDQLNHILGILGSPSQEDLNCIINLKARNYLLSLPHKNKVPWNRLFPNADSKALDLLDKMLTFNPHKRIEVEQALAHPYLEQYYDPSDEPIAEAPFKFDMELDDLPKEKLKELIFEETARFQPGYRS
The assay is described as follows: Radiometric kinase activity assay. Format: biochemical. The settings on record: 5 μg/ml NR-818, 10 μM ATP. As for the experimental part: as §1

Another assay concerns the target T10, PI 3-kinaseβ (Homo sapiens, UniProt P42338).
T10 construct: purchased Upstate Biotechnology
The assay is described as follows: Radiometric kinase activity assay. The assay is classed as biochemical. The following applies: 5 μg/ml NR-818, 10 μM ATP. On the procedure: as §1

The next assay has as its target T11, PI 3-kinaseγ (Homo sapiens, UniProt P48736).
T11 construct: purchased Upstate Biotechnology
The assay is described as follows: Radiometric kinase activity assay. The assay is classed as biochemical. The following applies: 5 μg/ml NR-818, 10 μM ATP. As for the experimental part:
as §1

The next assay concerns the target T12, PI 3-kinaseδ (Homo sapiens, UniProt O00329).
T12 construct: purchased Upstate Biotechnology, Lake Placid, N.Y
The assay is described as follows: Radiometric kinase activity assay. Format: biochemical. The settings on record: 5 μg/ml NR-818, 10 μM ATP. On the procedure:
as §1

For a further assay, the target named is T13, eEF-2K (Homo sapiens, UniProt O00418).
T13 construct: purchased Upstate Biotechnology
The assay is described as follows: Radiometric kinase activity assay. The assay is classed as biochemical. The following applies: 5 μg/ml NR-818, 10 μM ATP. On the procedure: as §1

For the next assay, the target named is T14, GSK-3α (Homo sapiens, UniProt P49840).
T14 construct: purchased Upstate Biotechnology
The assay is described as follows: Radiometric kinase activity assay. The following applies: GSK-3α; 5 μg/ml NR-818, 10 μM ATP. Format: biochemical. As for the experimental part:
as §1
(§2) By using this experimental set-up, the inhibiting activity of NR953 on GSK-3 is also tested.

A further assay has as its target T15, GSK-3β (Homo sapiens, UniProt P49841).
T15 construct: purchased Upstate Biotechnology
The assay is described as follows: Radiometric kinase activity assay. The assay is classed as biochemical. The following applies: GSK-3β; 5 μg/ml NR-818, 10 μM ATP. On the procedure: as §1, §2

In assay [1] the test system is motor neurons. The assay is described as follows: Basal survival of motor neurons in co-culture on glial feeder layer. The assay is classed as cell-based, Wistar rats. The following applies: FIG. 1A. As for the experimental part: Cell cultures: Primary motor neuron cultures were prepared from Wistar rats as follows. Spinal cords were dissected from E14 embryos and collected in Hanks' Balanced Salt Solution (HBSS; Gibco Invitrogen, Grand Island, N.Y). Ventral cords were minced and digested for 15 minutes at 37° C. in 0.05% trypsin in HBSS. The solution was then replaced with medium A (L15 (Sigma, St.-Louis, Mo.) supplemented with glucose, progesterone, insulin, putrescine, conalbumin, sodium selenite, penicillin, streptomycin and 2% horse serum) containing 0.4% BSA and 20 μg/ml DNase and the tissue was dissociated by trituration. The resulting single cell suspension was layered on a 6.8% (weight/volume in L15) optiprep cushion (one spinal cord per tube) and centrifuged at 500 g for 15 minutes. […] To remove debris, both fractions were resuspended in medium A and centrifuged for 20 minutes at 75 g on a 4% BSA cushion. For co-cultures, 30,000 motor neurons of the F1 fraction were seeded on a glial feeder layer. Glial feeder layers were prepared by plating F2 cells in 35 mm dishes. After 4 weeks in vitro, cell division was halted by exposure to 10^−5 M cytosine arabinoside. […]
Exposure experiments: After 1 day in culture NAIM was added to the culture medium at different concentrations. […] In the experiment in which the effect of fresh medium was evaluated, the culture medium was replaced in total every day. […]

Assay [2] concerns motor neurons. The assay is described as follows: Basal survival of motor neurons in monoculture. Format: cell-based, Wistar rats. As for the experimental part:
Cell cultures: Primary motor neuron cultures were prepared from Wistar rats as follows. Spinal cords were dissected from E14 embryos and collected in Hanks' Balanced Salt Solution (HBSS; Gibco Invitrogen, Grand Island, N.Y). Ventral cords were minced and digested for 15 minutes at 37° C. in 0.05% trypsin in HBSS. The solution was then replaced with medium A (L15 (Sigma, St.-Louis, Mo.) supplemented with glucose, progesterone, insulin, putrescine, conalbumin, sodium selenite, penicillin, streptomycin and 2% horse serum) containing 0.4% BSA and 20 μg/ml DNase and the tissue was dissociated by trituration. The resulting single cell suspension was layered on a 6.8% (weight/volume in L15) optiprep cushion (one spinal cord per tube) and centrifuged at 500 g for 15 minutes. […] To remove debris, both fractions were resuspended in medium A and centrifuged for 20 minutes at 75 g on a 4% BSA cushion. For co-cultures, 30,000 motor neurons of the F1 fraction were seeded on a glial feeder layer. Glial feeder layers were prepared by plating F2 cells in 35 mm dishes. After 4 weeks in vitro, cell division was halted by exposure to 10^−5 M cytosine arabinoside. For monocultures, 45,000 motor neurons were seeded in 35 mm dishes.
Immunocytochemistry: Cell cultures were washed and fixed in cooled paraformadehyde 4% for 30 minutes. After three washes, cells were incubated in blocking solution (10% normal serum in phosphate buffered saline (PBS)) for 1 hour. Monoclonal anti-SMI-32 ( 1/10,000, Sternberger Monoclonal Inc., Luthersville, Md.) and goat anti-GFAP ( 1/10,000, Dako, Denmark) were incubated overnight in 1% normal serum in PBS. Secondary antibodies used were goat anti-mouse IgG Alaxa555 ( 1/500, Molecular Probes, Eugene, Oreg.) and donkey anti-goat FITC ( 1/500, Jackson ImmunoResearch, West Grove, Pa.).
Exposure experiments: After 1 day in culture NAIM was added to the culture medium at different concentrations. All other compounds were also added after 24 hours in culture. When culture medium was replaced, only half of the medium was taken and replaced by fresh medium, in which all different compounds were substituted as to maintain the initial concentration. In the experiment in which the effect of fresh medium was evaluated, the culture medium was replaced in total every day. […]
In order to determine whether the effect of NAIM was mediated through the secretion of a soluble factor in the medium by the underlying astroglial feeder layer, we prepared monocultures in which only motor neurons were present. […] In order to determine whether the protective effect of the compound was dose-dependent, we conducted a dose-response study, in which cultures were treated with different concentrations of NAIM from day 1 off and cell survival was assessed on day 5.

T5 sequence (P50613 whole entry): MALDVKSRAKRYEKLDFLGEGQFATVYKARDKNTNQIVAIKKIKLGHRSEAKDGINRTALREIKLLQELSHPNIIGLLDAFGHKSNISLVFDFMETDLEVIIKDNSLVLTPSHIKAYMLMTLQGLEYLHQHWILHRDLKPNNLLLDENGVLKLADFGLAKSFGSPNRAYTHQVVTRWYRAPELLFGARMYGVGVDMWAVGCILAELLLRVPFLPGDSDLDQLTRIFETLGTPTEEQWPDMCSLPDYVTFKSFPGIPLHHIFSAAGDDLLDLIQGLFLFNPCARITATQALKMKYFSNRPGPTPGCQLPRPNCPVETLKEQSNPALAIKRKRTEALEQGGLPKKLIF
T5 sequence (P51946 whole entry partner): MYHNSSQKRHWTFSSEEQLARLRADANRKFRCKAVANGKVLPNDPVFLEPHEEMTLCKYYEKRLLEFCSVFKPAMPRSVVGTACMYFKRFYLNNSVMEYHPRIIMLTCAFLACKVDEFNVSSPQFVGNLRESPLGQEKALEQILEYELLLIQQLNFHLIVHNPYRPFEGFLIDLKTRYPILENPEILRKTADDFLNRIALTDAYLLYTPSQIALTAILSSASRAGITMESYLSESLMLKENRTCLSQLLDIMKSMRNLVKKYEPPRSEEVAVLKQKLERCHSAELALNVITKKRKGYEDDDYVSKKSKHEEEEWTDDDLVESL
T5 sequence (P51948 whole entry partner): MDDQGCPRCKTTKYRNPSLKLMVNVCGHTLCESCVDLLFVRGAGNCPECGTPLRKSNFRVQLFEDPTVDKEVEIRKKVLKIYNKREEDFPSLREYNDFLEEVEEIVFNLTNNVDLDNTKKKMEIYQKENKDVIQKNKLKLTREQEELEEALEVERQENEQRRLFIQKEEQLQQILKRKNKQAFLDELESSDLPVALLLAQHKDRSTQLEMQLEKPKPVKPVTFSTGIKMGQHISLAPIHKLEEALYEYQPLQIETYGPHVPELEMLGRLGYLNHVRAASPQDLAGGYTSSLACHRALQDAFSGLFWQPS
T11 sequence (P48736 whole entry): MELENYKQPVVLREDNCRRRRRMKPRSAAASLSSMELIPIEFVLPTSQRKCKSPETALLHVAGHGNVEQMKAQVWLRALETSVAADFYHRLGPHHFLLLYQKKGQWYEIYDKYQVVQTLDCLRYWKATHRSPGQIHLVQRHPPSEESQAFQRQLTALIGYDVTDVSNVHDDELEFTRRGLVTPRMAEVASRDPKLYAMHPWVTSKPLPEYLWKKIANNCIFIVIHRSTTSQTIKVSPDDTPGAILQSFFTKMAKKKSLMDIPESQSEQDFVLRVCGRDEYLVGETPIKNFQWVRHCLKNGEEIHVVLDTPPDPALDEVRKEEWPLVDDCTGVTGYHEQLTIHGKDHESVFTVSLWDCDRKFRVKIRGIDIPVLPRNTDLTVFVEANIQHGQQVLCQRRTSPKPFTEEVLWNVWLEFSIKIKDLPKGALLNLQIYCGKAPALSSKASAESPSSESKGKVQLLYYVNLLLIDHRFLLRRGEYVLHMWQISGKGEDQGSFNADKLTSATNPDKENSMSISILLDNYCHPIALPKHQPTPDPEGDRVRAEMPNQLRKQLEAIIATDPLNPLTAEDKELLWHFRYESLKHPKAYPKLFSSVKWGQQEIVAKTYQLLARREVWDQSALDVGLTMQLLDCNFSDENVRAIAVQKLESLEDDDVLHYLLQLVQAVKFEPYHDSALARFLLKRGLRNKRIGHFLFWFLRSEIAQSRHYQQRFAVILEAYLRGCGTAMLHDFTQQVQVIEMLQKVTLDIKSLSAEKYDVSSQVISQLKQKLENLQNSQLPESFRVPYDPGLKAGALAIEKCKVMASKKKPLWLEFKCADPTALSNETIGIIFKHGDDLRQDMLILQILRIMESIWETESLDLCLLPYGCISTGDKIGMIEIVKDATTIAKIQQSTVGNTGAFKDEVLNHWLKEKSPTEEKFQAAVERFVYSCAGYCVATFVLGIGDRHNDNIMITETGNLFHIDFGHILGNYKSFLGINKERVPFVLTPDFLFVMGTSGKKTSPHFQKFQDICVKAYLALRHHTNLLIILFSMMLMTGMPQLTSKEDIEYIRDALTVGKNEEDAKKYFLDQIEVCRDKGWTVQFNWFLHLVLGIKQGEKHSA
T6 sequence (P68400 whole entry): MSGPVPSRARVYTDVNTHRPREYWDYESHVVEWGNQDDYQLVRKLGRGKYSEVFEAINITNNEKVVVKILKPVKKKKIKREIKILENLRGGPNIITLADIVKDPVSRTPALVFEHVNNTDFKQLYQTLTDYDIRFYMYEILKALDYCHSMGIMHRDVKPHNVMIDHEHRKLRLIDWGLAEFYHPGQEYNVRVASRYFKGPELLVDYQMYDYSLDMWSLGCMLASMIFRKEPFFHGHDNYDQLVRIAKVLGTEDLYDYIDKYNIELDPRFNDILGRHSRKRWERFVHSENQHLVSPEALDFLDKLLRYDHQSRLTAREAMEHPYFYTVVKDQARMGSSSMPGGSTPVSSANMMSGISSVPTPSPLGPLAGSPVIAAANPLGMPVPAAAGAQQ
T6 sequence (P67870 whole entry partner): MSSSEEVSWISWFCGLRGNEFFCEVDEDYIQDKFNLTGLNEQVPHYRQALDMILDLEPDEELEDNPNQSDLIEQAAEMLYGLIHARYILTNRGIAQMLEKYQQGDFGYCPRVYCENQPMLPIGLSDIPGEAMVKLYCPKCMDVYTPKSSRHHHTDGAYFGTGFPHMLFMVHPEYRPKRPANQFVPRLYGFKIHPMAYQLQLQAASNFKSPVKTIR
T1 sequence (Q92831 whole entry): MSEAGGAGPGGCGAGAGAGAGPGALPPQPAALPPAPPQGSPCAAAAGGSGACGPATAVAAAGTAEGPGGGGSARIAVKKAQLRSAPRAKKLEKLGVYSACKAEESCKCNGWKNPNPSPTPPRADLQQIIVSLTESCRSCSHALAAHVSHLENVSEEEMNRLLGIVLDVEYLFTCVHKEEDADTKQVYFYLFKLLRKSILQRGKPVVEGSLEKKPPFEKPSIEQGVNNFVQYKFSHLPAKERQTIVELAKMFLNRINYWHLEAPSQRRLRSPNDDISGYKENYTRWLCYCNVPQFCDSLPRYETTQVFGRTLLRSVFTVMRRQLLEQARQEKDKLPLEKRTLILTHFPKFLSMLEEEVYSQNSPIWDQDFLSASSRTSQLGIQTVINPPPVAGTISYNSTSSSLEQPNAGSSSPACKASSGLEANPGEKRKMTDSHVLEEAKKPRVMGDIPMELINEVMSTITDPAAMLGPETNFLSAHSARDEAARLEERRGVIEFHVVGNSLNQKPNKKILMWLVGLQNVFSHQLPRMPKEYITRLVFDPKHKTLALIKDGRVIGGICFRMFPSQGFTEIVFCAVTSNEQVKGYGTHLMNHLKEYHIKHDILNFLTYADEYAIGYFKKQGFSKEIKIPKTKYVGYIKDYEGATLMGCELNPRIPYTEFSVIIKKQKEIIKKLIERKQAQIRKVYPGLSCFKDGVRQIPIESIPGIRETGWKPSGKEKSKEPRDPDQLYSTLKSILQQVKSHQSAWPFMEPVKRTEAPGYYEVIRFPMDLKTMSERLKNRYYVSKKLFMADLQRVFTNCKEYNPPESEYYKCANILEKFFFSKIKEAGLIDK
T8 sequence (P27361 whole entry): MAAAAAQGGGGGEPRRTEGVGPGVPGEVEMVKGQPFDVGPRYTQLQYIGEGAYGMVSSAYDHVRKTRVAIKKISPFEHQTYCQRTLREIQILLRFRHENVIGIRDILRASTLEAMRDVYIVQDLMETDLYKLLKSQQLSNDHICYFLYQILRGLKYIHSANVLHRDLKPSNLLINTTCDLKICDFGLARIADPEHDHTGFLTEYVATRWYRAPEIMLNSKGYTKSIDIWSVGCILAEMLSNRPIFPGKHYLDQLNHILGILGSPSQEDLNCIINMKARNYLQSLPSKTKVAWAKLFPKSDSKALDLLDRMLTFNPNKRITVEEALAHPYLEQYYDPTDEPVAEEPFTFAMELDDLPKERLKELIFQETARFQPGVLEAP

Turning to `Cc1nc(S)n(Nc2cccc3ccccc23)c1-c1ccccc1` [HER/NR818, 4-Methyl-1-(naphthalen-1-ylamino)-5-phenyl-1,3-dihydro-imidazole-2-thione], the “Activity (% of control)” value is recorded as 103 % of control on P/CAF (H4 peptide); 88 % of control at CDK1/cyclinB; 98 % of control on CDK5/p25; 112 % of control at CDK6/cyclinD3; 100 % of control at CDK7/cyclinH; 106 % of control with CK1. The “Activity (% of control)” value is 99 % of control on CK2; 100 % of control on JNK2α2; 104 % of control at MAPK1; 105 % of control on MAPK2; 81 % of control on PI 3-kinaseβ; 96 % of control on PI 3-kinaseγ. The “Activity (% of control)” value on PI 3-kinaseδ is given as 89 % of control; at eEF-2K, 101 % of control; on GSK-3α, 70 % of control; on GSK-3β it was 65 % of control. The “basal survival of motor neurons” value is given as “significant increase in the basal survival” with motor neurons [1] and “significant increase of the basal survival” in the assay on motor neurons [2] (monoculture, FIG. 1B). Besides, the “effect of daily medium replacement on protective properties” value in the assay on motor neurons [2] (medium replaced every day, FIG. 3) is “no effect on the protective properties”. In the assay on motor neurons [2] (monoculture, survival on day 5, FIG. 4), the “protective effect in combination with IL-2, IL-2-receptor blocking antibody or GM-CSF” value was “not influenced by either of the added compounds”. Besides, the “optimal concentration for motor neuron survival” value in the assay on motor neurons [2] (monocultures, dose-response, treated from day 1, survival assessed on day 5, FIG. 2) was found to be 1 µg/mL.

The values above are taken from patent US20120283303A1, “USE OF N-AMINOIMIDAZOLE CYTOPROTECTIVE COMPOUNDS FOR TREATING CELL DEATH AND/OR GSK-3 MEDIATED DISEASES” (K.U.LEUVEN RESEARCH AND DEVELOPMENT, priority 2006, published 2012).
